Data as given in publication PMC8044546, “Mycobacterium tuberculosis Thymidylyltransferase RmlA Is Negatively Regulated by Ser/Thr Protein Kinase PknB” (Frontiers in Microbiology, 2021).

How the values were obtained:
RmlA = RmlA (Mycobacterium tuberculosis, UniProt P9WH13)
PknH = PknH (Mycobacterium tuberculosis, UniProt P9WI71)
PknD = PknD (Mycobacterium tuberculosis, UniProt P9WI79)
Chain of PknD (P9WI79 2-664): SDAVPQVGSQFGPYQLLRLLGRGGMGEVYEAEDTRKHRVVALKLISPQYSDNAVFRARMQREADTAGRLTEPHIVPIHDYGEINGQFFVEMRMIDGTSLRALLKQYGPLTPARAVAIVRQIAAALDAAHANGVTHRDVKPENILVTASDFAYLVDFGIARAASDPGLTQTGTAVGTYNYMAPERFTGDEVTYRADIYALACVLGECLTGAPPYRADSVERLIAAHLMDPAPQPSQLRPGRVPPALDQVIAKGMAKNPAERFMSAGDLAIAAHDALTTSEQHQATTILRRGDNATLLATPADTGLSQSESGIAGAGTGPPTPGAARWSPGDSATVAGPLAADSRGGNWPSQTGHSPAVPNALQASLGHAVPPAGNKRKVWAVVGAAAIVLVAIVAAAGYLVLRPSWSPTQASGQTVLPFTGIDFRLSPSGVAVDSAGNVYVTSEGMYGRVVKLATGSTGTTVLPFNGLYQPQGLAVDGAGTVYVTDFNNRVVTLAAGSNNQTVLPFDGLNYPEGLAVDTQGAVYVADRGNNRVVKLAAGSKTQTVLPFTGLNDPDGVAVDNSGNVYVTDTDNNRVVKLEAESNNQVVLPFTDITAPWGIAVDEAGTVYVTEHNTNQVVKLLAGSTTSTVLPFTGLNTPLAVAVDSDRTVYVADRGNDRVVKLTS

Chain of RmlA (P9WH13 whole entry): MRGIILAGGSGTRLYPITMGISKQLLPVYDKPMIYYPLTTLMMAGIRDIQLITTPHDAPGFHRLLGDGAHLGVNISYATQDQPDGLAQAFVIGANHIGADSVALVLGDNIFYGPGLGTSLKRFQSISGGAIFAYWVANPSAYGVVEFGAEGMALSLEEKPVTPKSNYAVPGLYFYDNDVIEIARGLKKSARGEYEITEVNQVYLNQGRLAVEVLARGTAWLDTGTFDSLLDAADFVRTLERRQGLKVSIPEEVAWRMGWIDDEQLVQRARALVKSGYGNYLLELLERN
Chain of PknH (P9WI71 whole entry): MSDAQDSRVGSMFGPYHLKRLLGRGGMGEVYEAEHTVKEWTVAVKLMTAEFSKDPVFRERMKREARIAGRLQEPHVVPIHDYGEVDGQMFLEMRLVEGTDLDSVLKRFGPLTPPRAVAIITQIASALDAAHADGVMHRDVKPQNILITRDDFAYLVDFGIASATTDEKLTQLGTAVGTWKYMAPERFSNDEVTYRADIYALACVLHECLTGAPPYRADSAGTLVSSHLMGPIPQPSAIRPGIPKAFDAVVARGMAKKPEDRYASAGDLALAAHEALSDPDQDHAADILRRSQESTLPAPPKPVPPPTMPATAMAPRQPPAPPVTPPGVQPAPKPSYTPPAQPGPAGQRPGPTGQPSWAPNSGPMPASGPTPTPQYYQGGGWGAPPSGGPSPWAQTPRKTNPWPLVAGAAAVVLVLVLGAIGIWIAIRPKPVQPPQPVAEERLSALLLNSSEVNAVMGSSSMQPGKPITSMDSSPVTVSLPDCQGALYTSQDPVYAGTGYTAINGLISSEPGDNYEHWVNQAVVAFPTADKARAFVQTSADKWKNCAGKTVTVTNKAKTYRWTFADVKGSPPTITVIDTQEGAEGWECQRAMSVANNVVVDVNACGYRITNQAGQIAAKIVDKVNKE

Structure (SMILES) | malachite green phosphate assay coupled with pyrophosphatase (RmlA) | autophosphorylation assay (PknH) | autophosphorylation assay (PknD)
O=P(O)(O)O[C@H]1O[C@H](CO)[C@@H](O)[C@H](O)[C@H]1O [D-Glc-1-P] | ability of RmlA to convert D-Glc-1-P and dTTP to D-Glc-dTDP and PPi |  | 
Nc1ncnc2c1ncn2[C@@H]1O[C@H](COP(=O)(O)OP(=O)(O)OP(=O)(O)O)[C@@H](O)[C@H]1O [[γ-^32P]ATP] |  | three kinases, i.e., PknB, PknD, and PknH, demonstrated high kinase activities | three kinases, i.e., PknB, PknD, and PknH, demonstrated high kinase activities
Cc1cn([C@H]2C[C@H](O)[C@@H](COP(=O)(O)OP(=O)(O)OP(=O)(O)O)O2)c(=O)[nH]c1=O [dTTP] | ability of RmlA to convert D-Glc-1-P and dTTP to D-Glc-dTDP and PPi |  | 
